# Legend:
# Rattus norvegicus [1] = species on record: Rattus norvegicus; format: toxicity, organism-based, Sprague-Dawley; conditions: in vivo, po, 200 mg/kg, 24 h, route oral GAVAGE, dose level High, time 1 day, vehicle .5 % CMC
# Description: DrugMatrix - Regimen: Single
# Rattus norvegicus [2] = species on record: Rattus norvegicus; assay: DrugMatrix - Regimen: Daily Repeat; format: toxicity, organism-based, Sprague-Dawley; parameters: regimen Daily Repeat, gender Male, age 6-8 weeks; conditions: in vivo, po, 200 mg/kg, […], route oral GAVAGE, dose level High, time 14 day, vehicle .5 % CMC
structure (smiles),measurement,setting,value
CC(C)=C1CC[C@@H](C)CC1=O [PULEGONE],ABSOLUTE EOSINOPHIL,Rattus norvegicus [1]; tissue Blood,46 CELLS/uL
same,ABSOLUTE LYMPHOCYTE,Rattus norvegicus [1]; tissue Blood,13023.67 CELLS/uL
same,ABSOLUTE MONOCYTE,Rattus norvegicus [1]; tissue Blood,245.33 CELLS/uL
same,ABSOLUTE SEGMENTED NEUTROPHIL,Rattus norvegicus [1]; tissue Blood,1251.67 CELLS/uL
same,BASOPHIL,Rattus norvegicus [1]; tissue Blood,0%
same,EOSINOPHIL,Rattus norvegicus [1]; tissue Blood,0.33%
same,ERYTHROCYTE COUNT,Rattus norvegicus [1]; tissue Blood,5.98 x10E6/uL
same,HEMATOCRIT,Rattus norvegicus [1]; tissue Blood,37.73%
same,HEMOGLOBIN,Rattus norvegicus [1]; tissue Blood,13.9 G/DL
same,LEUKOCYTE COUNT,Rattus norvegicus [1]; tissue Blood,14.57 x10E3/uL
same,LYMPHOCYTE,Rattus norvegicus [1]; tissue Blood,90%
same,MEAN CORPUSCULAR HEMOGLOBIN,Rattus norvegicus [1]; tissue Blood,23.43 pg
same,MEAN CORPUSCULAR HEMOGLOBIN CONCENTRATION,Rattus norvegicus [1]; tissue Blood,37 G/DL
same,MEAN CORPUSCULAR VOLUME,Rattus norvegicus [1]; tissue Blood,63.4 fL
same,MONOCYTE,Rattus norvegicus [1]; tissue Blood,1.67%
same,NEUTROPHIL,Rattus norvegicus [1]; tissue Blood,8%
same,NUCLEATED RED BLOOD CELLS,Rattus norvegicus [1]; tissue Blood,0 /100WBC
same,PLATELET COUNT,Rattus norvegicus [1]; tissue Blood,961.67 x10E3/uL
same,ALANINE AMINOTRANSFERASE,Rattus norvegicus [1]; tissue Plasma,52.67 u/L
same,ALBUMIN,Rattus norvegicus [1]; tissue Plasma,4.3 G/DL
same,ALKALINE PHOSPHATASE,Rattus norvegicus [1]; tissue Plasma,476.33 u/L
same,ASPARTATE AMINOTRANSFERASE,Rattus norvegicus [1]; tissue Plasma,110 u/L
same,BLOOD UREA NITROGEN,Rattus norvegicus [1]; tissue Plasma,12.33 mg/dL
same,CARBON DIOXIDE,Rattus norvegicus [1]; tissue Plasma,23.67 mmol/L
same,CHLORIDE,Rattus norvegicus [1]; tissue Plasma,103.5 MEQ/L
same,CHOLESTEROL,Rattus norvegicus [1]; tissue Plasma,77.67 mg/dL
same,CREATININE,Rattus norvegicus [1]; tissue Plasma,0.14 mg/dL
same,GLUCOSE,Rattus norvegicus [1]; tissue Plasma,133.33 mg/dL
same,LACTATE DEHYDROGENASE,Rattus norvegicus [1]; tissue Plasma,244 u/L
same,LIPASE,Rattus norvegicus [1]; tissue Plasma,10 u/L
same,PHOSPHORUS,Rattus norvegicus [1]; tissue Plasma,12.8 mg/dL
same,POTASSIUM,Rattus norvegicus [1]; tissue Plasma,6.49 MEQ/L
same,SODIUM,Rattus norvegicus [1]; tissue Plasma,142.65 MEQ/L
same,TOTAL BILIRUBIN,Rattus norvegicus [1]; tissue Plasma,0.23 mg/dL
same,TOTAL PROTEIN,Rattus norvegicus [1]; tissue Plasma,6 G/DL
same,URIC ACID,Rattus norvegicus [1]; tissue Plasma,1.8 mg/dL
same,ABSOLUTE BASOPHIL,Rattus norvegicus [2]; tissue Blood,0 CELLS/uL
same,ABSOLUTE EOSINOPHIL,Rattus norvegicus [2]; tissue Blood,211.4 CELLS/uL
same,ABSOLUTE LYMPHOCYTE,Rattus norvegicus [2]; tissue Blood,21257.2 CELLS/uL
same,ABSOLUTE MONOCYTE,Rattus norvegicus [2]; tissue Blood,665.8 CELLS/uL
same,ABSOLUTE SEGMENTED NEUTROPHIL,Rattus norvegicus [2]; tissue Blood,3705.6 CELLS/uL
same,BASOPHIL,Rattus norvegicus [2]; tissue Blood,0%
same,EOSINOPHIL,Rattus norvegicus [2]; tissue Blood,0.8%
same,ERYTHROCYTE COUNT,Rattus norvegicus [2]; tissue Blood,6.34 x10E6/uL
same,HEMATOCRIT,Rattus norvegicus [2]; tissue Blood,37.3%
same,HEMOGLOBIN,Rattus norvegicus [2]; tissue Blood,13.88 G/DL
same,LEUKOCYTE COUNT,Rattus norvegicus [2]; tissue Blood,25.84 x10E3/uL
same,LYMPHOCYTE,Rattus norvegicus [2]; tissue Blood,82.2%
same,MEAN CORPUSCULAR HEMOGLOBIN,Rattus norvegicus [2]; tissue Blood,21.94 pg
same,MEAN CORPUSCULAR HEMOGLOBIN CONCENTRATION,Rattus norvegicus [2]; tissue Blood,37.2 G/DL
same,MEAN CORPUSCULAR VOLUME,Rattus norvegicus [2]; tissue Blood,58.94 fL
same,MONOCYTE,Rattus norvegicus [2]; tissue Blood,2.6%
same,NEUTROPHIL,Rattus norvegicus [2]; tissue Blood,14.4%
same,NUCLEATED RED BLOOD CELLS,Rattus norvegicus [2]; tissue Blood,0 /100WBC
same,PLATELET COUNT,Rattus norvegicus [2]; tissue Blood,1150.2 x10E3/uL
same,ALANINE AMINOTRANSFERASE,Rattus norvegicus [2]; tissue Plasma,78.8 u/L
same,ALBUMIN,Rattus norvegicus [2]; tissue Plasma,4.54 G/DL
same,ALKALINE PHOSPHATASE,Rattus norvegicus [2]; tissue Plasma,518 u/L
same,ASPARTATE AMINOTRANSFERASE,Rattus norvegicus [2]; tissue Plasma,93.8 u/L
same,BLOOD UREA NITROGEN,Rattus norvegicus [2]; tissue Plasma,14.2 mg/dL
same,CARBON DIOXIDE,Rattus norvegicus [2]; tissue Plasma,27.4 mmol/L
same,CHLORIDE,Rattus norvegicus [2]; tissue Plasma,102.2 MEQ/L
same,CHOLESTEROL,Rattus norvegicus [2]; tissue Plasma,65 mg/dL
same,CREATININE,Rattus norvegicus [2]; tissue Plasma,0.18 mg/dL
same,GLUCOSE,Rattus norvegicus [2]; tissue Plasma,128.2 mg/dL
same,LACTATE DEHYDROGENASE,Rattus norvegicus [2]; tissue Plasma,147 u/L
same,LIPASE,Rattus norvegicus [2]; tissue Plasma,11 u/L
same,PHOSPHORUS,Rattus norvegicus [2]; tissue Plasma,12.52 mg/dL
same,POTASSIUM,Rattus norvegicus [2]; tissue Plasma,7 MEQ/L
same,SODIUM,Rattus norvegicus [2]; tissue Plasma,148.6 MEQ/L
same,TOTAL BILIRUBIN,Rattus norvegicus [2]; tissue Plasma,0.32 mg/dL
same,TOTAL PROTEIN,Rattus norvegicus [2]; tissue Plasma,6.52 G/DL
same,URIC ACID,Rattus norvegicus [2]; tissue Plasma,2.08 mg/dL

# From ChEMBL document CHEMBL3885881, “DrugMatrix”
